Key:
KLRG1+ ILC2s [1] = assay: IL-25-induced in vivo ILC2 activation model; set-up: species or system mouse
From the text: Intraperitoneal administration of α-CGRP impaired IL-25-induced expansion of KLRG1^+ ILC2s (FIGS. 5B and 12A), consistent with the in vitro results. Recent work has shown that intestinal KLRG1^+ ILC2s can migrate to mesenteric lymph nodes (mLNs) and other tissues during inflammation via sphingosine 1-phosphate (S1P)-mediated chemotaxis (Huang et al., 2018). To determine whether α-CGRP primarily impacts intestinal or mLN ILC2s, Applicants relied on the fact that intestinal GATA3^+ ILC2s are generally phenotypically KLRG1^+ST2^− (data not shown), whereas mLN ILC2s are mainly ST2^+ at steady state (FIG. 5C). IL-25 administration increased the frequency of both KLRG1^+ST2^− inflammatory ILC2s and ST2^+ ILC2s in mLNs (FIGS. 5C-E and 12B). […] Thus, α-CGRP preferentially regulates the response of intestinal KLRG1^+ST2^− ILC2s. […] Taken together, α-CGRP antagonized expansion of intestinal KLRG1^+ ILC2s in two different type 2 inflammatory models.
To activate ILC2s in vivo, 200 ng of IL-25 was intraperitoneally injected into 7-10 weeks old mice daily for two days. 1 μg α-CGRP was injected together as noted.
(§1) Flow cytometry and cell sorting. Cells were washed and suspended in MACS buffer (pH 7.4; PBS plus 2% FCS and 2 mM EDTA). Nonspecific antibody binding was blocked with CD16/CD32 (2.4G2) antibody for 15 min on ice. Cells were then stained with antibody cocktails for 30 min at 4° C. Lineage-positive cells were excluded for analyzing ILCs by staining for CD3ε (145-2C11), CD5 (53-7.3), CD19 (6D5), CD11b (M1/70), CD8 (53-6.7), CD11c (N418), Gr-1 (RB6-8C5), TCRγδ (eBioGL3 (GL-3, GL3)) and TCRβ (H57-597). To analyze mast cells, lineage-positive cells were excluded by staining for CD3ε, CD5, CD19, CD11c and SiglecF (E50-2440). For surface staining, antibodies for KLRG1 (2F1), CD45 (30-F11), CD127 (A7R34), CCR6 (29-2L17), NKp46 (29A1.4), CD90.2 (53-2.1), FcεRI (Mar-1), IgD (11-26c.2a) and ST2 (DJ8) were used. For intracellular staining, cells were fixed and permeabilized using the Foxp3 transcription factor staining buffer set, followed by staining with anti-GATA-3 (TWAJ) or anti-RORγt (B2D) antibodies. Dead cells were excluded with 7-AAD or Fixable Viability Dye eFluor 780. Flow cytometry was performed on Cytoflex (Beckman Coulter) and analyzed with FlowJo software. Sorting was performed with the SH800S Cell Sorter (Sony Biotechnology).
Immunofluorescence staining and imaging. The small intestines were fixed in 2% PFA, embedded in O.C.T. Compound and sliced into 10 μm by frozen section. The slides were blocked with 0.1% Triton X-100, 2% FCS and donkey serum. […] The images were analyzed with ImageJ.

lung ILC2s = settings: co-stimulated with IL-33; cited from earlier work
intestinal KLRG1+ ILC2s = assay: Bulk RNA-seq of intestinal KLRG1+ ILC2s stimulated in vitro; type: cell-based, mouse
From the text: To determine if α-CGRP can directly trigger signaling in ILC2s and impact their transcriptional states under inflammatory conditions, Applicants performed bulk RNA-seq of KLRG1^+ ILC2s isolated from the small intestine and stimulated in vitro with IL-25 alone or together with α-CGRP. […] Thus, α-CGRP inhibits IL-25-induced proliferation and activation of intestinal KLRG1+ILC2s.
The presence at homeostasis of α-CGRP receptors on ILC2s and α-CGRP's expression on ChAT^+ intestinal neurons led Applicants to hypothesize that it has an effect on ILC2s during homeostasis. To test this hypothesis, Applicants next measured the expression profiles of intestinal KLRG1^+ ILC2s stimulated in vitro by α-CGRP alone, and identified genes differentially expressed under this signal (FIG. 6D, Methods).
ILC2 culture. Sort-purified intestinal KLRG1^+ ILC2s were incubated in RPMI supplemented with 10% FCS, 10 mM Hepes, 1 mM sodium pyruvate, 10% FBS, 80 μm 2-mercaptoethanol, 2 mM glutamine, 100 U/ml penicillin, […] streptomycin, 100 ng/ml IL-2 and 100 ng/ml IL-7 in 96-well round bottom plate at 37° C. and 5% CO2. If indicated, the culture was supplemented with 100 ng/ml IL-25. For the in vitro proliferation assay, cells from different mice were pooled and labeled with CellTrace Violet, and then cultured at 1,000-1,500 cells per well with 10 μg/ml α-CGRP for 60 hours. When indicated, 10 μM forskolin or 1 μM SQ 22, 536 in DMSO was supplied and cells were cultured for 40 hours. For bulk RNA-seq, cells from individual mice were stimulated at 200 cells per well with 0.4 μg/ml α-CGRP for 3 hours. For bulk ATAC-seq, cells were stimulated with 0.4 μg/ml α-CGRP for 2 hours.
Bulk RNA-seq. 200 ILC2s from each condition were lysed in 10 ul TCL buffer plus 0.5% 2-Mercaptoethanol. Libraries were processed with SMART-Seq2 (Picelli et al., 2013) with at least three replicates per condition, and paired-end sequenced (75 bp×2) with a […] Nextseq 500 high output V2 kit.
Reads were aligned to the mouse reference genome (NCBI 38, mm10) using Bowtie (Langmead et al., 2009) with default parameters, and expression abundances were estimated using RSEM software (Li and Dewey, 2011). The differential gene expression analysis was performed with edgeR (Robinson et al., 2010) with default parameters.

KLRG1+ ILC2s [2] = assay: In vitro proliferation assay (CellTrace Violet, flow cytometry); type: cell-based, mouse; settings: IL-25 plus α-CGRP, 60 hours; P=0.01, t-test
Procedure: as §1
ILC2 culture. […]

**Q.** What does the source list for “α-CGRP: neuropeptide alpha-calcitonin gene-related peptide, encoded by exon 5 of Calca; administered as peptide”?
**A.** frequency of KLRG1+ST2− ILC2s in mLNs (KLRG1+ ILC2s [1]; IL-25 co-administered with α-CGRP): reduced; IL-25-induced expansion of KLRG1+ ILC2s (KLRG1+ ILC2s [1]; intraperitoneal α-CGRP with IL-25, small intestine, IF): impaired; IL-5 expression in lung ILC2s (lung ILC2s): increases; Il5 expression (intestinal KLRG1+ ILC2s; IL-25 together with α-CGRP in vitro): further induced; IL-25-induced activation signature (intestinal KLRG1+ ILC2s; IL-25 together with α-CGRP in vitro, adjusted P<0.001, t-test): significantly suppressed; expression of adenylate cyclase-mediated GPCR signaling genes (Adrb2, Adora2a, Pde4b, Akap12) and cAMP response genes (Areg, Crem, Il5) (intestinal KLRG1+ ILC2s; α-CGRP alone in vitro): induced expression; expression of cell cycle arrest genes (Cdkn1a, Gadd45a, Akap12) and negative regulators of ILC2 expansion (Adrb2, Pdcd1) (intestinal KLRG1+ ILC2s; α-CGRP alone in vitro): induced expression; IL-25-induced cell division (KLRG1+ ILC2s [2]): significantly suppressed
